Assay results taken from patent publication US12158464B2, “Methods for modeling disease tissue using three-dimensional tissue systems” (priority 2013, dated 2024).
Entries after “also recorded” stand apart in the source; their conditions may differ.

Experiments:
[1] = test system: hESC-derived cardiomyocyte tissue strands; test: NO treatment of perfusable human cardiac tissue strands, beating activity by image analysis; format: cell-based; details: 24 hr NO treatment by perfusion of 200 mM SNP
Procedure: (§1) NO treatment of human cardiac tissue strands was carried out. On day 7, the NO treatment of human cardiac tissue strand was initiated by perfusing the 200 mM SNP solution and the peristaltic pump was stopped once the SNP solution was perfused through the tubing. The beating activities of the human cardiac tissue strands were recorded at 16.67 frames/second before treatment and 24 hr post-treatment by Olympus IX81 while the tissue strands were kept at 37° C. The beating activities of the human cardiac tissue strands were quantified by the image analysis method described by Sage et al^28. In brief, the movements of one spot at the same location on the human cardiac tissue strand before and after the NO treatment were characterized.

[2] = test system: hESC-derived cardiomyocyte tissue strands; test: α-actinin immunostaining and confocal microscopy of NO-treated tissue strands; format: cell-based, human; details: NO treatment by perfusion, vs control tissue strands
Procedure: Tissue strands were fixed with 4% parafornaldehyde, permeablized by 0.25% Triton X-100, and blocked by 10% bovine serum albumin (BSA). Immunostaining was performed using the following antibodies: mouse anti-cardiac Troponin T (cTnT) (Abcam; 1:100), mouse anti-α-actinin (Abcam; 1:200) and anti-rabbit-TRITC (Invitrogen; 1:200), anti-mouse-TRITC (Jackson Immuno Research; 1:200). Nuclei were counterstained with 4′,6-diamidino-2-phenylindole (DAPI) (Biotium; 1:100). Phalloidin-Alexa 660 (Introgen; 1:600) was used to stain F-actin fibers. For confocal microscopy, the stained cardiac tissue strands were visualized under an inverted confocal microscope (Olympus IX81) or an upright confocal microscope (Zeiss LSM 510).
as §1, with “In brief, the movements of one spot at the same location on the human cardiac tissue strand before and after the NO treatment were characterized.” left out

[3] = test system: human cardiac tissue strands (hESC, Hes2 derived cardiomyocytes); test: Biorod drug testing: tissue beating pattern and contractile force by polymer wire deflection; format: cell-based
Procedure: Cardiomyocytes were derived from human embryonic stem cell lines (hESC, Hes2). Embryoid bodies (EBs) were differentiated to the cardiovascular lineage and disassociated as previously described in Device 1 Methods. Before cell seeding, micro-well surface was rinsed with 5% (w/v) Pluronic Acid (Sigma P2443) and then air dried in the bio-safety cabinet. hESC derived cardiomyocytes were suspended at 200 million/ml (unless specified otherwise) in Collagen Type I based gel (3.0 mg/ml of rat tail collagen type I (BD Biosciences) neutralized by 1N NaOH and 10×M199 media as described by the manufacturer) with the supplements of […], 1% (v/v) HEPES, 10% (v/v) Matrigel (BD Biosciences), and […]. Suspended cardiomyocytes were then seeded into the cell culture channel (2.5 μl per well). After 30 min incubation at 37° C. to induce the gelation, appropriate media were added. After seeding, cells were kept in culture for 7 days to allow collagen matrix remodeling and assembly around the wires. Cardiac tissue strands were kept in culture for up to 21 days with media change every 2-3 days. Preferably, the tissue strands should be kept in culture for at least 2 weeks to allow for maturation; however there is no limitation on the maximum culture duration. Cardiac tissue strands were seeded to observe the stability and reproducibility of tissue in long term culture. After seeding, brightfield images (see FIG. 39A for an example) of the tissue strands were taken every day (n=3 per group) using optical microscope (Olympus CKX41) and the diameters of the tissue strands at four distinct locations were analyzed with imageJ (see FIG. 39B for an example). Tissue strand lengths were also analyzed with same method.
Tissue contractile behavior tracing and measurement was carried out. POMac is auto-fluorescent at a wide range of wavelenths; therefore the wires were imaged with a fluorescence microscope under DAPI channel (e.g. 461 nm wavelength) to trace the bending movements of the wires. The POMac is auto-fluorescent at a wide range of wavelengths, including under FITC and Tritc channels. Images were taken at 25 frames per second (fps) (see FIG. 39C). Image sequences were analyzed with ImageJ software using tracking plugin. To calculate the forces originated from cardiac tissues, beam deflection formula with uniformly distributed load in the middle section was used here. […] The engineered cardiac tissues were paced at 2 Hz frequency. From this image sequence, contraction and relaxation time of beating can be estimated. […] Tissue stretching wires can be considered uniformly distributed Load, Wo (Load per force bearing length), which can be calculated with displacement of center point of wires in image sequence, and F can be calculated as well. […] Briefly, entire beam length was L. Section of wire with tissue wrapping around it was experiencing load. Here, the load was assumed to be evenly distributed throughout this section, and Wo was load per length. […] The distance between side of the tissue and a well wall is a, which was assumed equal for both sides. The deflection at center point was y.
Drug testing was carried out.

hESC-CM biowires (Hes2) [4] = format: cell-based, human
Procedure: After preculture for 7 days, biowires were randomly transferred to 6-well plates and cultured in StemPro-34 media in the absence or presence of Isoproterenol (100 nM), Angiotensin II (200 nM [17]) or Endothelin-1 (150 nM)(Sigma) for 7 days. This protocol was chosen to replicate the chronic treatment of mice as described. […] Isolated single cells were seeded on Matrigel-coated glass cover slips before cell area and calcium transient measurements were performed. Immunostaining and Fluorescence Microscopy. Immunostaining was performed using the following antibodies: mouse anti-cTNT (1:100, Thermo Scientific; MS-295-P1), mouse anti-α-actinin (1:200, Abcam, ab9465), anti-mouse-Alexa Fluor 488 (1:400, Invitrogen, A21202), anti-rabbit-TRITC (1:400, Invitrogen, 81-6114). DAPI was used to counterstain nuclei. Phalloidin Alexa Fluor 660 (1:1000, Invitrogen, A22285) was used to detect actin fibers. The stained cells were visualized using a fluorescence microscope (Leica CTR6000) and images captured using the Leica Application Suite software. For confocal microscopy cells were visualized using a fluorescence confocal microscope (Zeiss LSM-510). Transmission Electron Microscopy (TEM). Tissue was fixed with 4% Paraformaldehyde, 1% Glutaraldehyde in 0.1 M PBS for at least 1 hr and washed 3 times with PBS pH 7.2. Post-fixation was done with 1% Osmium Tetraoxide in 0.1 M PBS, pH 7.2 for 1 hr and dehydrated using ethanol series from 25 to 100%. Tissue was infiltrated using Epon resin and polymerized in plastic dishes at 40° C. for 48 hr. Tissue was stained with Uranyl Acetate and Lead Citrate after sectioning. Imaging was performed at Hitachi H-7000 transmission electron microscope.

hESC-CM biowires (Hes2) [5] = test: Chronic drug exposure of biowires: quantitative RT-PCR of fetal gene program; format: cell-based, human; details: 7 days treatment: ISO 100 nM, Et-1 150 nM, AngII 200 nM, vs untreated control
Procedure: (§2) After preculture for 7 days, biowires were randomly transferred to 6-well plates and cultured in StemPro-34 media in the absence or presence of Isoproterenol (100 nM), Angiotensin II (200 nM [17]) or Endothelin-1 (150 nM)(Sigma) for 7 days. This protocol was chosen to replicate the chronic treatment of mice as described. […] Isolated single cells were seeded on Matrigel-coated glass cover slips before cell area and calcium transient measurements were performed.
Quantitative RT-PCR. RT-PCR was performed as previously described. Total RNA was prepared with the High Pure RNA Isolation Kit (Roche) and treated with RNase-free DNase (Roche). RNA was reverse transcribed into cDNA using random hexamers and Oligo (dT) with SuperScript VILO (Invitrogen). RT-qPCR was performed on a LightCycler 480 (Roche) using LightCycler 480 SYBR Green I Master (Roche). Expression levels were normalized to the housekeeping genes TATA box binding protein (TBP) or Glyceraldehyde 3-phosphate dehydrogenase (GAPDH).

hESC-CM biowires (Hes2) [6] = test: Chronic drug exposure: ELISA of soluble BNP in conditioned media; format: cell-based, human
Procedure: as §2, with “performed. ELISA. Quantification of soluble BNP from the conditioned media was performed using commercially available ELISA kits.” for “performed.”

[7] = test system: Hes2 hESC derived cardiomyocytes; format: cell-based, human; details: single cells dissociated at end of 7 days treatment, cardiac troponin T staining
Procedure: as §2

[8] = test system: hESC-derived CMs 3D tissues; format: cell-based, human
Procedure: Alternatively, to measure the force generated by the 3D engineered cardiac tissues, a bioreactor consisting of a PDMS tissue chamber capable of housing 8 micotissues was employed. […] Briefly, each well of the PDMS chamber had two posts which served as anchoring points for each cardiac tissue during gel compaction. Furthermore, by tracking a post's deflection, the force of contraction a cardiac tissue generated was determined. Cardiac tissues underwent 7 days of pre-culture followed by 7 days of treatment with endothelin-1, angiotensin II or isoproterenol. After the treatment, the contractile force of each cardiac tissue was determined by video recording, one at a time, the top surface of a post for each cardiac tissue while being paced at 0.5 or 1 Hz using CellSens software (Olympus). Each video was then exported as a series of Tiff images and opened in ImageJ. […] Using the method of superposition for a cantilever beam-partial uniform deflection, a point force was calculated and then normalized to the tissues cross sectional area (assumed circular) to determine the cardiac force per area.

[9] = test system: hESC-derived CMs 3D tissues; test: Chronic drug exposure: cell viability in 3D tissues by live/dead staining; format: cell-based, human; details: vs non-treated controls
hESC-CM biowires (Hes2) [10] = test: Chronic drug exposure: conduction velocity by optical mapping upon point stimulation; format: cell-based, human; details: point stimulation at the end of cultivation, vs non-treated controls
Procedure: Optical Mapping. […] Imaging was performed at 200 frames/s. […] Data analysis was performed using BrainVision software (Scimedia).

SMILES | spontaneous beating of human cardiac tissue strands ([1]; vs basal level) | beating frequency after NO treatment normalized to the basal level ([1]; n=3) [%] | α-actinin structure (cytoskeleton) of cardiomyocytes [2] | tissue contractile forces normalized to forces before drug addition ([3]; 100 nM) | tissue contractile forces normalized to forces before drug addition ([3]; 1 μM) | tissue contractile forces normalized to forces before drug addition ([3]; 10 μM) | response of human cardiac tissues to well-known drugs ([3]; summary statement) | contractile apparatus (transmission electron microscopy) (hESC-CM biowires (Hes2) [4]) | ANF and BNP gene expression (fetal gene program) (hESC-CM biowires (Hes2) [5]) | ANF and BNP gene expression (fetal gene program) (hESC-CM biowires (Hes2) [5]; listed as Isoproterenol) | BNP in the conditioned media (hESC-CM biowires (Hes2) [6]; chronic treatment) | increase in the secretion of BNP (hESC-CM biowires (Hes2) [6]; day 2 post-treatment, media conditioned for 48 h) [fold] | increase of BNP in the media (hESC-CM biowires (Hes2) [6]; day 7, media conditioned for 24 h) [%] | increase in cell size [7] [%] | force of contraction [8] | cell viability (live/dead staining) [9] | conduction velocity (hESC-CM biowires (Hes2) [10])
[N]=O [NO, nitric oxide] | significantly slowed down the beating | 74±3 | disrupted α-actinin structure; also recorded: overall punctate pattern |  |  |  |  |  |  |  |  |  |  |  |  |  | 
CC(C)NCC(O)c1ccc(O)c(O)c1 (centres unmarked) [ISO, Isoproterenol] |  |  |  | positive inotropic action | positive inotropic action | slight negative inotropic effect | responded appropriately | significant absence of distinct Z-disks and the lack of a defined sarcomere structure | significantly induced | induction of brain natriuretic peptide (BNP) and atrial natriuretic factor (ANF) gene expression | BNP can also be found in the conditioned media | 2.5 | 70 | 35 | significantly reduced force of contraction | no differences | the same
